Reference: patent publication US20120088827A1 (Profectus Biosciences, Inc., priority 2009, published 2012)

Tests used:
Format in all cases: cell-based
[1] = system: NF-κB driven transcription (pTRH1-NF-κB-dscGFP reporter, 293 cells); experiment: NF-kB/293/GFP reporter cell assay; conditions: Homo sapiens, HEK293; compound 2 hours, then 20 ng/ml TNF-α for 18 hours; fluorescence
Protocol: Two reporter cell assays were used to determine the ability of the compounds of Examples 1-12 to inhibit NF-κB driven transcription. The first assay was a 293-cell based assay with a stably integrated pNF-κB-luc reporter plasmid containing 3 NF-κB promoter elements. The second assay was a 293-cell based assay with a stably integrated pTRH1-NF-κB-dscGFP reporter containing 4 NF-κB promoter elements. Cells were treated with 0, 0.2, 1, 10, 20 and 40 μM of the compounds of Example 1-12 for 2 hours then were induced with 20 ng/ml TNF-α for 18 hours. Following the induction, luminescence or fluorescence was quantified using a Beckman-Coulter 2300 plate reader. […] As a control, 0.5% DMSO treated and untreated cells were compared to verify that the compounds of Examples 1-12 had no effect on the expression of luciferase or in the readout of the assay. There was a slight decrease in the output from the assay in the DMSO treated population although it was not statistically significant. As a result of the controls, the decrease in activity in the drug treated samples was compared to the DMSO control sample.

IL-6 = experiment: Inhibition of IL-6 release in LPS-stimulated RAW 264.7 cells; conditions: Mus musculus, RAW264.7; pretreated 2 hours, 1 μg/mL LPS 20-24 hours
Protocol: (§1) RAW 264.7 cells were seeded at 4×10^4 cells per well in complete growth medium in 96 well white TC plates with clear bottoms one day prior to the assay. The next day the cells were washed once and 100 μL fresh growth media was added. Cells were pretreated with 0.5 μL from a 6 point 200× dilution series of the test compounds in DMSO for 2 hours. Following pretreatment with the drugs, the inflammatory response was induced by adding 5 μL of a 20 μg/mL solution of LPS (Sigma). The cells were incubated in the presence of the drugs and 1 μg/mL LPS for another 20-24 hours. Typically after treatment the total DMSO was […] of the culture volume and the final concentrations of the compounds were approximately: 40, 20, 10, 1, 0.2 and 0 μM depending on the MW of each compound. Modified dilution series were prepared as needed to get adequate dose response curves without changing the % DMSO. Samples were run in duplicate or triplicate and included DMSO treated control wells with and without LPS stimulation. Drugs with a known activity such as Parthenolide or DHMEQ were run as experimental controls. After 20-24 hours LPS activation, the media supernatant was collected from the cells and replaced with fresh media. The supernatant samples were cleared by centrifugation at 1,000×g for 5 minutes, transferred to fresh storage plates, and stored frozen at −30° C.
After determining the appropriate supernatant dilutions experimentally, mIL-6 levels in the supernatants were quantified using Quantikine™ mouse IL-6 Immunoassay (R&D Systems) according to the manufacturer's protocol. Approximately 50 μL of the supernatants diluted in Calibrator Diluent were added to 50 μL of Assay Diluent in microplate wells pre-coated with an anti-mouse IL-6 capture antibody. Controls included a calibrated positive IL-6 control sample, non-specific binding (NSB) wells containing Calibrator Diluent but no IL-6, and a recombinant mouse IL-6 standard dilution series (10-1000 pg/mL). The plates were incubated at room temperature for 2 hours with shaking and then washed 5 times with 400 μL 1× Wash Buffer. Approximately 100 μL of an HRP-conjugated anti-mouse IL-6 antibody was added to each well to detect IL-6 captured on the plate. The plates were incubated at room temperature for 2 hours and then washed 5 times with 400 μl 1× Wash Buffer. Equal volumes of Color Reagents A and B were mixed and 100 μL of this HRP Substrate Solution was added to each well on the plate. The blue color was allowed to develop for 30 minutes and then the reaction was stopped using 100 μL of Stop Solution yielding a yellow color. Absorbance at 450 nm with a reference wavelength subtracted at 595 nm was recorded using a Becton-Dickinson DTX 880 Multimode Detector.
The concentration of mIL-6 in the unknown samples was determined from a curve-fit of the mIL-6 standard absorbance data and multiplying by the dilution factor. The maximum activity achieved in the absence of the inhibitor (DMSO+LPS treated wells) was arbitrarily given a value of 100%; likewise the minimum activity in the absence of the stimulant (no LPS) was assigned a value of 0% Inhibition of the amount of mIL-6 cytokine released in the drug treated wells was calculated relative to the maximum activation in the DMSO+LPS treated control wells (i.e., % inhibition=100−(drug+LPS treated)/(DMSO+LPS treated)). Dose response curves were used to determine the effective concentration to inhibit 50% of the mIL-6 cytokine released (IC50) by means of a SigmaPlot macro which fits a sigmoidal dose-response curve to the (log 10) μM concentration versus % inhibition. […] This technique yields an objective value for the IC50 provided that 50% inhibition was approached at the concentrations tested.

PGE2 = experiment: Inhibition of PGE2 release in LPS-stimulated RAW 264.7 cells; conditions: Mus musculus, RAW264.7; pretreated 2 hours, 1 μg/mL LPS 20-24 hours
Protocol: as §1
After determining the appropriate supernatant dilutions experimentally, PGE2 levels in the supernatants were quantified using Parameter™ PGE2 Immunoassay (R&D Systems) according to the manufacturer's protocol. […] Absorbance at 450 nm with a reference at 595 nm was recorded using a Becton-Dickinson DTX 880 Multimode Detector.
The concentration of PGE2 in the unknown samples was determined from a curve-fit of the PGE2 standard absorbance data and multiplying by the dilution factor. […] Inhibition of the amount of PGE2 released in the drug treated wells was calculated relative to the maximum activation in the DMSO+LPS treated control wells (i.e., % inhibition=100−(drug+LPS treated)/(DMSO+LPS treated)). […]

CC(C)CC(=O)Oc1ccccc1C(=O)NC1=CC(=O)C2OC2C1O (racemic) [Example 1, (±)-2-(2-hydroxy-5-oxo-7-oxabicyclo[4.1.0]hept-3-en-3-ylcarbamoyl)phenyl 3-methylbutanoate]
EC50 [1]: 11000 nM | EC50 (IL-6): 500 nM | EC50 (PGE2): 1900 nM

CC(C)OC(=O)Oc1ccccc1C(=O)NC1=CC(=O)C2OC2C1OC(=O)OC(C)C (racemic) [Example 2, (±)-3-(2-isopropoxycarbonyloxy-benzoylamino)-5-oxo-7-oxa-bicyclo[4.1.0]hept-3-en-2-yl ester isopropyl ester]
EC50 (IL-6): 1300 nM | EC50 (PGE2): 2700 nM

O=C(CC1CCCCC1)Oc1ccccc1C(=O)NC1=CC(=O)C2OC2C1O (racemic) [Example 3, (±)-2-(2-hydroxy-5-oxo-7-oxabicyclo[4.1.0]hept-3-en-3-ylcarbamoyl)phenyl 2-cyclohexylacetate]
EC50 [1]: 10000 nM | EC50 (IL-6): 720 nM | EC50 (PGE2): 1100 nM

CCCC(C)C(=O)Oc1ccccc1C(=O)NC1=CC(=O)C2OC2C1O (racemic) [Example 4, (±)-2-(2-hydroxy-5-oxo-7-oxabicyclo[4.1.0]hept-3-en-3-ylcarbamoyl)phenyl 2-methylpentanoate]
EC50 [1]: 17000 nM | EC50 (IL-6): 450 nM

CCCCC(CC)C(=O)Oc1ccccc1C(=O)NC1=CC(=O)C2OC2C1O (racemic) [Example 5, (±)-2-(2-hydroxy-5-oxo-7-oxabicyclo[4.1.0]hept-3-en-3-ylcarbamoyl)phenyl 2-ethylhexanoate]
EC50 [1]: 6700 nM | EC50 (IL-6): 440 nM

CC(C)(C)CC(=O)Oc1ccccc1C(=O)NC1=CC(=O)C2OC2C1O (racemic) [Example 6, (±)-2-(2-hydroxy-5-oxo-7-oxabicyclo[4.1.0]hept-3-en-3-ylcarbamoyl)phenyl 3,3-dimethylbutanoate]
EC50 [1]: 10000 nM | EC50 (IL-6): 350 nM

CC(C)OC(=O)Oc1ccccc1C(=O)NC1=CC(=O)C2OC2C1O (racemic) [Example 7, (±)-2-(2-hydroxy-5-oxo-7-oxabicyclo[4.1.0]hept-3-en-3-ylcarbamoyl)phenyl isopropyl carbonate]
EC50 [1]: 8400 nM | EC50 (IL-6): 1700 nM

CC(C)OC(=O)OC1C(NC(=O)c2ccccc2O)=CC(=O)C2OC21 (racemic) [Example 8]
EC50 [1]: 14000 nM | EC50 (IL-6): 1500 nM
